In PubChem BioAssay (NCI):
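Growth conditions: 96-well plates. Treatment: test compound, 48 hours, 5 concentrations. Analysis: linear interpolation between bracketing concentrations; unreached endpoints set to highest concentration. TGI is the concentration that stops growth completely.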

How the values were obtained:
Test in all cases: inhibition of tumour cell growth, NCI panel, 48 h
[1] = tested on: OVCAR-8 ovarian
[2] = tested on: SW-620 colon
[3] = tested on: LOX IMVI melanoma
[4] = tested on: KM12 colon
[5] = tested on: PC-3 prostate
[6] = tested on: NCI/ADR-RES ovarian
[7] = tested on: K-562 leukemia
[8] = tested on: OVCAR-3 ovarian
[9] = tested on: A549 NSCLC
[10] = tested on: M14 melanoma
[11] = tested on: MOLT-4 leukemia
[12] = tested on: SK-MEL-28 melanoma
[13] = tested on: SR leukemia
[14] = tested on: HCT-116 colon
[15] = tested on: U251 CNS
[16] = tested on: HT29 colon
[17] = tested on: ACHN renal
[18] = tested on: 786-0 renal
[19] = tested on: IGROV1 ovarian
[20] = tested on: CCRF-CEM leukemia

| SMILES | TGI [1] [µM] | TGI [2] [µM] | TGI [3] [µM] | TGI [4] [µM] | TGI [5] [µM] | TGI [6] [µM] | TGI [7] [µM] | TGI [8] [µM] | TGI [9] [µM] | TGI [10] [µM] | TGI [11] [µM] | TGI [12] [µM] | TGI [13] [µM] | TGI [14] [µM] | TGI [15] [µM] | TGI [16] [µM] | TGI [17] [µM] | TGI [18] [µM] | TGI [19] [µM] | TGI [20] [µM] |
| --- | --- | --- | --- | --- | --- | --- | --- | --- | --- | --- | --- | --- | --- | --- | --- | --- | --- | --- | --- | --- |
| COC1O[C@H]2[C@H]3[C@@H]1[C@@H](OS(=O)(=O)c1ccc(C)cc1)C(=O)N3C[C@H]2O (some centres not stated) | > 100 | > 100 | > 100 | > 100 | > 100 | > 100 | > 100 | > 100 | > 100 | > 100 | > 100 | > 100 | > 100 | > 100 | > 100 | > 100 | > 100 | > 100 | – | – |
| COCn1c(C)c(C)c2c(=O)oc(N(C)C)nc21 | > 100 | > 100 | > 100 | > 100 | > 100 | > 100 | > 100 | – | > 100 | > 100 | > 100 | > 100 | > 100 | > 100 | > 100 | > 100 | > 100 | > 100 | > 100 | > 100 |
| C#CCCCOc1ncccn1 | > 100 | > 100 | > 100 | > 100 | > 100 | > 100 | > 100 | > 100 | > 100 | > 100 | > 100 | > 100 | > 100 | > 100 | > 100 | > 100 | > 100 | > 100 | > 100 | – |
| Cc1nc2ccccc2c(=O)n1NC(=S)Nc1ccc(Cl)cc1[N+](=O)[O-] | > 100 | > 100 | – | > 100 | > 100 | > 100 | > 100 | > 100 | > 100 | > 100 | > 100 | > 100 | > 100 | > 100 | > 100 | > 100 | > 100 | > 100 | > 100 | > 100 |
| c1ccc(C(=NNc2cnc3ccccc3n2)c2ccccn2)cc1 | 2.68 | 22.5 | – | 20.5 | 19.2 | 2.15 | > 67.5 | 12.2 | 15 | 10.9 | 11.4 | 55.5 | 10.9 | > 36.6 | 23.8 | 17.7 | 12.6 | 15.4 | 11.5 | 28.3 |
| Cc1ccc(/C=C2\Cc3cccc(C)c3C2=O)c(C(=O)O)c1 | > 100 | > 100 | > 100 | > 100 | > 100 | – | > 100 | > 100 | > 100 | > 100 | > 100 | > 100 | > 100 | > 100 | > 100 | > 100 | 88.1 | > 100 | > 100 | > 100 |
| Clc1cc(Br)c2c3c(c(Br)cc(Cl)c13)C(Br)=C2Br | 93 | > 100 | 32.2 | > 100 | > 100 | 57.8 | > 100 | > 100 | > 100 | > 100 | 45.6 | > 100 | 58.1 | 40.3 | > 100 | 61.5 | 36.3 | 47.7 | 36.5 | – |
| COc1ccc(-n2c(N)c(C#N)c(C#N)c2-c2ccccc2)cc1 | > 100 | > 100 | > 100 | > 100 | > 100 | > 100 | – | > 100 | > 100 | > 100 | > 100 | – | > 100 | > 100 | > 100 | > 100 | > 100 | > 100 | > 100 | > 100 |
| CC(=O)O[C@H]1C(=O)[C@@]2(C)[C@H]([C@H](OC(=O)c3ccccc3)[C@]3(O)C[C@H](OC(=O)[C@H](O)[C@@H](NC(=O)C(C)(C)C)c4ccccc4)C(C)=C1C3(C)C)[C@]1(OC(C)=O)CO[C@@H]1C[C@@H]2O | > 3.84 | > 10 | > 10 | > 10 | 1.31 | > 10 | > 10 | – | > 10 | > 4.71 | > 8.96 | > 10 | > 2.58 | > 3.23 | > 3.9 | > 10 | > 10 | > 5.47 | > 10 | > 10 |
| CCOC(=O)C1=CC(C)(C(=O)OCC)Nc2c(nc(OC)[nH]c2=O)N1 (configuration not stated) | > 10 | > 10 | > 10 | > 10 | > 10 | > 10 | > 10 | > 10 | > 10 | > 10 | > 10 | > 10 | – | > 10 | > 10 | > 10 | > 10 | > 10 | > 10 | > 10 |
| CN(C)Cc1cc(C=O)cc(CN(C)C)c1O | > 100 | > 100 | > 100 | > 100 | > 100 | > 100 | > 100 | > 100 | > 100 | – | > 100 | > 100 | > 100 | > 100 | > 100 | > 100 | > 100 | > 100 | > 100 | > 100 |
| COC(=O)C1C2CC3C1C3C2C(=O)OC (configuration not stated) | > 100 | > 100 | > 100 | > 100 | > 100 | > 100 | > 100 | > 100 | > 100 | > 100 | > 100 | > 100 | – | > 100 | > 100 | > 100 | > 100 | > 100 | > 100 | > 100 |
| C1=NCCNCCNCCN=Cc2ccccc2OCc2cccc(n2)COc2ccccc21 | 84.4 | > 100 | – | > 100 | > 100 | 60.4 | > 100 | > 100 | > 100 | > 100 | > 100 | > 100 | 88.9 | > 100 | 66.3 | 51.6 | 83.4 | > 100 | > 100 | 55.1 |
| N#Cc1nc(C(CO)N(Cc2ccccc2)C(=O)O)oc1N (configuration not stated) | > 100 | – | > 100 | > 100 | > 100 | > 100 | > 100 | > 100 | > 100 | > 100 | > 100 | > 100 | > 100 | > 100 | > 100 | > 100 | > 100 | > 100 | > 100 | – |
| [O-][n+]1onc2c1/C(=N/O)CCC2 | > 100 | > 100 | > 100 | > 100 | > 100 | > 100 | > 100 | > 100 | > 100 | > 100 | > 100 | > 100 | > 100 | > 100 | – | > 100 | > 100 | > 100 | > 100 | > 100 |
| CC(=N\N=C\c1ccccn1)/C(C)=N/N=C(C)/C(C)=N/N=C/c1ccccn1 | > 100 | > 100 | > 100 | > 100 | > 100 | > 100 | – | > 100 | > 100 | > 100 | – | > 100 | > 100 | > 100 | > 100 | > 100 | > 100 | > 100 | > 100 | > 100 |
| COc1cc(N(Cc2ccc3nc(OC)c(OC)nc3c2)Cc2ccc3nc(OC)c(OC)nc3c2)cc(OC)c1OC | > 50 | > 50 | > 50 | > 50 | > 50 | > 50 | – | > 50 | > 50 | > 50 | > 50 | > 50 | > 50 | > 50 | > 50 | > 50 | > 50 | > 50 | – | – |
| Cc1ccc2c(=O)cc(-c3ccsc3)[nH]c2n1 | > 100 | > 21.1 | > 56.6 | > 100 | > 61.9 | > 20.5 | > 100 | > 100 | > 44.7 | > 58.1 | > 30.7 | > 100 | – | > 75.6 | > 55.2 | > 100 | > 100 | > 100 | > 100 | > 83 |
| CC(=O)O[C@H]1CCC2[C@@H]3CCC4Cc5nc6c(nc5C[C@]4(C)C3CC[C@@]21C)CC1CC[C@@H]2C(CC[C@@]3(C)C2CC[C@@H]3C(C)CCCC(C)C)[C@@]1(C)C6 (some centres not stated) | > 100 | > 100 | > 100 | > 100 | > 100 | > 100 | > 100 | > 100 | > 100 | > 100 | > 100 | > 100 | – | > 100 | > 100 | > 100 | > 100 | > 100 | > 100 | > 100 |
| Cc1ccc(-c2nc(-c3cnccn3)n(C3OC(CO)C(O)C(O)C3O)n2)cc1 (configuration not stated) | > 100 | > 100 | > 100 | > 100 | > 100 | > 100 | > 100 | > 100 | > 100 | > 100 | > 100 | > 100 | > 100 | > 100 | > 100 | > 100 | – | > 100 | > 100 | > 100 |
| COC(=O)CSC(=S)Nc1nnc(NC(=S)SCOC(C)=O)n1C(=S)SCC(=O)OC | – | > 100 | > 100 | > 100 | > 100 | > 100 | > 100 | > 100 | – | > 100 | > 100 | > 100 | > 100 | > 100 | > 100 | > 100 | > 100 | > 100 | > 100 | > 100 |
| O=c1[nH]cnc2c1ncn2[C@@H]1C[C@H]1CO | > 100 | > 100 | > 100 | > 100 | > 100 | > 100 | > 100 | – | > 100 | > 100 | > 100 | > 100 | > 100 | > 100 | > 100 | > 100 | > 100 | > 100 | > 100 | > 100 |
| Cc1ccc(C)c2c1CC(Cc1ccccc1C(=O)O)C2=O (configuration not stated) | > 100 | > 100 | > 100 | > 100 | > 100 | > 100 | > 100 | > 100 | > 100 | > 100 | > 100 | > 100 | – | > 100 | > 100 | > 100 | > 100 | > 100 | > 100 | > 100 |
| O=C(O)[C@@H]1NC[C@H]2C(Br)=NO[C@H]21 | > 100 | > 100 | > 100 | > 100 | > 100 | > 100 | – | > 100 | > 100 | > 100 | > 100 | > 100 | > 100 | > 100 | > 100 | > 100 | > 100 | > 100 | > 100 | > 100 |
| CC(C)(C)OC(=O)C1CC[C@@H](CC(=O)Oc2ccc([N+](=O)[O-])cc2)N1 (some centres not stated) | > 100 | > 100 | > 100 | > 100 | > 100 | > 100 | – | > 100 | > 100 | > 100 | > 100 | > 100 | > 100 | > 100 | > 100 | – | > 100 | > 100 | > 100 | > 100 |
